The record followed here is patent US10947196B2, “Beta adrenergic agonist and methods of using the same” (CURASEN THERAPEUTICS, INC., priority 2019, dated 2021).

Where two headings read alike, the source gives them in different places.

Format in all cases: cell-based
Test [1] concerns the target β2 adrenergic receptors in human astrocytoma cells (1321N1) (Homo sapiens (Human), UniProt P07550). Kind of test: cAMP HTRF assay in human astrocytoma cells (1321N1). As to conditions: Endogenous receptor, 1321N1 cells. In outline: (§1)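 Intracellular cAMP quantified by Eu-donor/d2-acceptor HTRF after 30 min compound exposure at 37° C in stimulation buffer with IBMX. Concentrations ran 10 μM top, 5-fold steps, 10 points. Cell lines: 1321N1 astrocytoma and CHO expressing β1 or β2; EC50 via four-parameter fit, relative efficacy against isoproterenol.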
For orientation: In TR-FRET formats the signal depends on donor and acceptor labels being close together.

Another test has as its target β1-adrenergic receptor (Homo sapiens (Human), UniProt P08588). Kind of test: cAMP Gs dynamic HTRF assay, β1 expressing CHO cells. The note with it: B1-AR. In outline: as §1
A further test has as its target β2 adrenergic receptor (Homo sapiens (Human), UniProt P07550). Kind of test: cAMP Gs dynamic HTRF assay, β2 expressing CHO cells. The note with it: B2-AR. In outline: as §1
For the next test, the target named is B3-AR (Homo sapiens (Human), UniProt P13945). Kind of test: cAMP potency assay, B3-AR expressing CHO-K1 cells.
B3-AR, sequence (P13945 whole entry, species assumed): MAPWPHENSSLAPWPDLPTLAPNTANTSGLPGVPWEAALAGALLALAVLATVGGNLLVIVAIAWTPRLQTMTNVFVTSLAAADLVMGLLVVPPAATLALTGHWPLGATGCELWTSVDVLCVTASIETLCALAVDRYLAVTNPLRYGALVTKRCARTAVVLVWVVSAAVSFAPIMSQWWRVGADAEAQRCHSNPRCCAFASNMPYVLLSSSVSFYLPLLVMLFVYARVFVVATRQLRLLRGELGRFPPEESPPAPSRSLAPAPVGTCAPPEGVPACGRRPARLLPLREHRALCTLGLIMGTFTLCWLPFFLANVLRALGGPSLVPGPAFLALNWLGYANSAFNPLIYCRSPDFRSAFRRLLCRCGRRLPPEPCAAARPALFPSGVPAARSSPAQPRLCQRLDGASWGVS
[2] abbreviates: read-out: Average pEC50 [Receptor subtype: Endogenous, Cell type: 1321N1] (converted).
Setting [3] is: CHO-K1 (HitHunter), read-out: Average pEC50 [Receptor subtype: B1-AR, Cell type: CHO-K1 (HitHunter)] (converted).
Where [4] appears, read: CHO-K cells, read-out: Average EC50 [Receptor subtype: B1-AR, Cell type: CHO-K].
Where [5] appears, read: CHO-K1 (HitHunter), read-out: Average pEC50 [Receptor subtype: B2-AR, Cell type: CHO-K1 (HitHunter)] (converted).
[6] abbreviates: CHO-K cells, read-out: Average EC50 [Receptor subtype: B2-AR, Cell type: CHO-K].
The mark [7] stands for this setting: read-out: Average pEC50 [Receptor subtype: B3-AR, Cell type: CHO-K1] (converted).
Setting [8] is: read-out: Average EC50 [Receptor subtype: Endogenous, Cell type: 1321N1].
The mark [9] stands for this setting: read-out: Average EC50 [Receptor subtype: B3-AR, Cell type: CHO-K1].

β2 adrenergic receptors in human astrocytoma cells (1321N1), sequence (P07550 whole entry): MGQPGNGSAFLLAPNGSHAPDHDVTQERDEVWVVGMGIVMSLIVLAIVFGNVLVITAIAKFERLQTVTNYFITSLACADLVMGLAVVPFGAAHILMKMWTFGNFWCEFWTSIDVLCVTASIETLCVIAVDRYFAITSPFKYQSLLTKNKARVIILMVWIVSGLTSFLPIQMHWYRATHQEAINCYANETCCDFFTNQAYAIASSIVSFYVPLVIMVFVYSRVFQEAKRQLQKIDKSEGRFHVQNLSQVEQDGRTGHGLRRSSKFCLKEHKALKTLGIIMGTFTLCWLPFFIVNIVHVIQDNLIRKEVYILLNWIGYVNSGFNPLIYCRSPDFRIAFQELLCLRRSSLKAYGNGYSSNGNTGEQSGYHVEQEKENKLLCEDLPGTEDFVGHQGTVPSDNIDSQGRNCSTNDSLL
β2 adrenergic receptor, sequence (P07550 whole entry, species assumed): as the sequence (P07550 whole entry) above
β1-adrenergic receptor, sequence (P08588 whole entry, species assumed): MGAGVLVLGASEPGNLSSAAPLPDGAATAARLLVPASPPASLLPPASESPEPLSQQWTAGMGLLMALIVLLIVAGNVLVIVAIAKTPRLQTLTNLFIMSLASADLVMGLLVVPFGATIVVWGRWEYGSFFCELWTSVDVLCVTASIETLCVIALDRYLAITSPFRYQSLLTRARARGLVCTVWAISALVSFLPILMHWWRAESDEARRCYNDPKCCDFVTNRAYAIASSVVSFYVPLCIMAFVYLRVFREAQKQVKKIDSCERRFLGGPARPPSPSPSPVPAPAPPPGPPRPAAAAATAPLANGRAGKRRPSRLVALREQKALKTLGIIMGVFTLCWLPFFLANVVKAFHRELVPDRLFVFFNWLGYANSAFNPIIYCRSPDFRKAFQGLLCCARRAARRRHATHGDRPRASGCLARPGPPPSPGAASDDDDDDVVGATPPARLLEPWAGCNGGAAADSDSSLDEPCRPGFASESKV

Take `CNc1cccc([C@@H](O)CNC(C)(C)C)n1` [Compound 03-141]: the EC50 in test [1] (setting [2]) was 10 to 100 nM; on β1-adrenergic receptor (setting [3]), 10 to 100 nM; at β1-adrenergic receptor (setting [4]) it was 100 to 1000 nM; on β2 adrenergic receptor (setting [5]), less than 10 nM; at β2 adrenergic receptor (setting [6]) it was less than 10 nM; on B3-AR (setting [7]), greater than 1000 nM.

With `Cc1ccc([C@@H](O)CNC(C)(C)C)nc1C#N` [Compound 03-8], the EC50 in test [1] (setting [2]) is greater than 1000 nM; on β1-adrenergic receptor (setting [3]), greater than 1000 nM; at β1-adrenergic receptor (setting [4]) it was greater than 1000 nM; at β2 adrenergic receptor (setting [5]), 100 to 1000 nM; on β2 adrenergic receptor (setting [6]), 100 to 1000 nM; at B3-AR (setting [7]), greater than 1000 nM.

Regarding `CC1(NC[C@H](O)c2cccc(C(F)(F)F)n2)CC1` [Compound 03-14], the EC50 in test [1] (setting [2]) was 100 to 1000 nM; at β1-adrenergic receptor (setting [3]), 10 to 100 nM; at β1-adrenergic receptor (setting [4]) it was 10 to 100 nM; on β2 adrenergic receptor (setting [5]), 10 to 100 nM; at β2 adrenergic receptor (setting [6]), 10 to 100 nM; on B3-AR (setting [7]), greater than 1000 nM.

As for `CCOc1cccc([C@@H](O)CNC(C)(C)C)n1` [Compound 03-177], the EC50 in test [1] (setting [2]) was less than 10 nM; on β1-adrenergic receptor (setting [3]), 10 to 100 nM; on β1-adrenergic receptor (setting [4]), 10 to 100 nM; on β2 adrenergic receptor (setting [5]), less than 10 nM; at β2 adrenergic receptor (setting [6]), less than 10 nM; at B3-AR (setting [7]), 100 to 1000 nM.

On to `CC(C)Oc1ncccc1[C@@H](O)CNC(C)(C)C` [Compound 03-57], for which the “Average pEC50 [Receptor subtype: Endogenous; Cell type: 1321N1]” value in test [1] is reported as “C (C = <7-6)”. Besides, the EC50 in test [1] (setting [8]) is 100 to 1000 nM; at β1-adrenergic receptor (setting [4]) it was 100 to 1000 nM; on β2 adrenergic receptor (setting [5]), 10 to 100 nM; on β2 adrenergic receptor (setting [6]) it was 10 to 100 nM; on B3-AR (setting [9]), greater than 1000 nM; at B3-AR (setting [7]) it was greater than 1000 nM. Besides, the “Average pEC50 [Receptor subtype: B1-AR; Cell type: CHO-K1 (HitHunter)]” value at β1-adrenergic receptor (CHO-K1 (HitHunter)) is listed as “C (C = <7-6)”.

In the case of `CC(C)(C)NC[C@H](O)c1cncc(C(F)(F)F)n1` [Compound 03-38], the “Average pEC50 [Receptor subtype: Endogenous; Cell type: 1321N1]” value in test [1] is “C (C = <7-6)”. In addition, the EC50 was 100 to 1000 nM in test [1] (setting [8]); 100 to 1000 nM at β1-adrenergic receptor (setting [4]); 10 to 100 nM on β2 adrenergic receptor (setting [5]); 10 to 100 nM on β2 adrenergic receptor (setting [6]); greater than 1000 nM on B3-AR (setting [9]); greater than 1000 nM on B3-AR (setting [7]). In addition, the “Average pEC50 [Receptor subtype: B1-AR; Cell type: CHO-K1 (HitHunter)]” value at β1-adrenergic receptor (CHO-K1 (HitHunter)) is “C (C = <7-6)”.

With `CCc1ncccc1[C@@H](O)CNC(C)(C)C` [Compound 03-52], the EC50 in test [1] (setting [2]) was greater than 1000 nM; at β1-adrenergic receptor (setting [3]), greater than 1000 nM; on β2 adrenergic receptor (setting [5]), 100 to 1000 nM; at B3-AR (setting [7]), greater than 1000 nM.

Consider `Cc1ccc([C@@H](O)CNC(C)(C)C)nc1` [Compound 03-127], for which the EC50 in test [1] (setting [2]) is 10 to 100 nM; on β1-adrenergic receptor (setting [3]), 10 to 100 nM; at β1-adrenergic receptor (setting [4]) it was 10 to 100 nM; on β2 adrenergic receptor (setting [5]), 10 to 100 nM; at β2 adrenergic receptor (setting [6]), 10 to 100 nM; at B3-AR (setting [7]), greater than 1000 nM.

With `CC(C)NC[C@H](O)c1cccc(C2CC2)n1` [Compound 03-10], in test [1], the “Average pEC50 [Receptor subtype: Endogenous; Cell type: 1321N1]” value was “B (B = 8-7)”. For the same compound, the EC50 was 10 to 100 nM in test [1] (setting [8]); 10 to 100 nM on β1-adrenergic receptor (setting [3]); 10 to 100 nM on β1-adrenergic receptor (setting [4]); less than 10 nM on β2 adrenergic receptor (setting [5]); less than 10 nM on β2 adrenergic receptor (setting [6]); greater than 1000 nM on B3-AR (setting [9]). The “Average pEC50 [Receptor subtype: B3-AR; Cell type: CHO-K1]” value on B3-AR is “D (D < 6)”.

In the case of `CC(C)(C)NC[C@H](O)c1cccc(N2CCCC2)n1` [Compound 03-173], the EC50 in test [1] (setting [2]) is less than 10 nM; at β1-adrenergic receptor (setting [3]), 100 to 1000 nM; at β1-adrenergic receptor (setting [4]), 100 to 1000 nM; on β2 adrenergic receptor (setting [5]), less than 10 nM; on β2 adrenergic receptor (setting [6]), less than 10 nM; on B3-AR (setting [7]), greater than 1000 nM.

In the case of `CC(C)(C)NC[C@H](O)c1cccc(C2CCC2)n1` [Compound 03-161], the EC50 in test [1] (setting [2]) is less than 10 nM; on β1-adrenergic receptor (setting [4]) it was less than 10 nM; on β2 adrenergic receptor (setting [5]) it was less than 10 nM; at β2 adrenergic receptor (setting [6]) it was less than 10 nM; on B3-AR (setting [7]), 100 to 1000 nM. For the same compound, the “Average pEC50 [Receptor subtype: B1-AR; Cell type: CHO-K1 (HitHunter)]” value at β1-adrenergic receptor (CHO-K1 (HitHunter)) is listed as “A (A > 8)”.

As for `COc1ccc(C[C@@H](C)NC[C@H](O)c2cccc(C(F)(F)F)n2)cc1` [Compound 03-15], the EC50 in test [1] (setting [2]) is less than 10 nM; at β1-adrenergic receptor (setting [3]), less than 10 nM; on β1-adrenergic receptor (setting [4]), less than 10 nM; at β2 adrenergic receptor (setting [5]) it was less than 10 nM; at β2 adrenergic receptor (setting [6]), less than 10 nM; on B3-AR (setting [7]) it was 100 to 1000 nM.
